Results on nine molecules are retold here after article PMC8804615, “Characterization and comparison of recombinant full‐length ursine and human sex hormone‐binding globulin” (FEBS Open Bio, 2021).

In data set [1] the target is T1, ursine SHBG (uSHBG) (Ursus arctos, UniProt Z9D432XYQ2).
T1 construct: homodimer ~93 kDa, glycosylated; 402 aa precursor
Kind of data set: competition with [3H]DHT, dextran-coated charcoal separation. It is filed as binding. The settings on record: ~6 nM [3H]DHT; data not shown.

Data set [2] deals with T2, human SHBG (hSHBG) (Homo sapiens, UniProt P04278).
T2 construct: homodimer ~94 kDa, glycosylated
T2 sequence (P04278 30-402): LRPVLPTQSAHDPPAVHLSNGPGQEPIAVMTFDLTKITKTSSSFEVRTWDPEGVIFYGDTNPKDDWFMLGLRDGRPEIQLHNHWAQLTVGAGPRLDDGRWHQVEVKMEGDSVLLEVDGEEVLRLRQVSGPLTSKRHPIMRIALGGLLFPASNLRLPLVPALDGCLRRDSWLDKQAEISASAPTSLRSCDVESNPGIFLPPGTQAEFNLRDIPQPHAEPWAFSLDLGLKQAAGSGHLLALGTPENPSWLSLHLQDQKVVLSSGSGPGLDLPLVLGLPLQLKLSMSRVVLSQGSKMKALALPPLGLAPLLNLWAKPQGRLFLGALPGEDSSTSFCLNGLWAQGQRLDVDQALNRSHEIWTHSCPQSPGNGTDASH
The description is as above. Type of data set: binding. The conditions noted are these: ~6 nM [3H]DHT; data not shown.

The target in data set [3] is recombinant full-length ursine sex hormone-binding globulin with a C-terminal FLAG tag (Ursus arctos (brown bear)). Put plainly: SEC-MALS; WYATT 30S5 SEC column, 20 mM Tris-HCl, 250 mM NaCl (for the ursine measurements), 1 mM CaCl2, 1 uM DHT, pH 8.0; about 10 ug SHBG injected; dimer. (In general: Size exclusion chromatography separates by hydrodynamic size, large species first.)

Data set [4] concerns the molecule itself. Kind of data set: SEC-MALS; WYATT 30S5 SEC column, 20 mM Tris-HCl, 150 mM NaCl, 1 mM CaCl2, 1 uM DHT, pH 8.0; about 10 ug SHBG injected; dimer.
Data set [5] concerns the molecule itself. Put plainly: SEC-MALS; native human serum SHBG; WYATT 30S5 SEC column, 20 mM Tris-HCl, 150 mM NaCl, 1 mM CaCl2, 1 uM DHT, pH 8.0; dimer.

As usually defined, the stoichiometry N is a count of units in the complex or per binding partner.

T1 sequence (Z9D432XYQ2 27-402 limits assumed): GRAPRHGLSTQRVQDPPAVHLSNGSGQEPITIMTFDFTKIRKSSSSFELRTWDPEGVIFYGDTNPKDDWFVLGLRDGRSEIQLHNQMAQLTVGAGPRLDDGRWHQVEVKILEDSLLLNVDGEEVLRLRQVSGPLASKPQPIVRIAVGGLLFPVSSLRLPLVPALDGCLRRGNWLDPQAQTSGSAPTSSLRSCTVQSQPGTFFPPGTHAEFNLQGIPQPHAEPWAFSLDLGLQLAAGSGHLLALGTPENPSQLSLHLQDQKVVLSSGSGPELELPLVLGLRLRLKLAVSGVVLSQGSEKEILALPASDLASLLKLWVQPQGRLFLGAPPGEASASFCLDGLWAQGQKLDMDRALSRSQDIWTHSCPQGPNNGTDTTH

In the case of `C[C@]12CCC(=O)C=C1CC[C@@H]1[C@@H]2CC[C@@]2(C)[C@H]1CC[C@]2(O)C(=O)CO` [11‐deoxycortisol], the “RBA (DHT = 100%)” value in data set [1] and in data set [2] was under 1% throughout.

For `C[C@]12CCC(=O)C=C1CC[C@@H]1[C@@H]2CC[C@]2(C)C(=O)CC[C@@H]12` [androstenedione], the “RBA (DHT = 100%)” value in data set [1] and in data set [2] was under 1% each time.

In the case of `C[C@]12C[C@H](O)[C@H]3[C@@H](CCC4=CC(=O)CC[C@@]43C)[C@@H]1CC[C@@H]2C(=O)CO` [corticosterone], the “RBA (DHT = 100%)” value in data set [1] and in data set [2] was under 1% each time.

Turning to `C[C@]12CC[C@H](O)CC1=CC[C@@H]1[C@@H]2CC[C@]2(C)C(=O)CC[C@@H]12` [dehydroepiandrosterone], the “RBA (DHT = 100%)” value in data set [1] and in data set [2] was under 1% each time.

Consider `C[C@]12CC[C@H]3[C@@H](CCC4=CC(=O)CC[C@@]43C)[C@@H]1CC[C@@H]2C(=O)CO` [deoxycorticosterone], for which the “RBA (DHT = 100%)” value in data set [2] is on record as under 1%.

As for `CC(=O)[C@H]1CC[C@H]2[C@@H]3CCC4=CC(=O)CC[C@]4(C)[C@H]3CC[C@]12C` [progesterone], the “RBA (DHT = 100%)” value in data set [1] and in data set [2] was under 1% in each case.

For “recombinant full-length ursine sex hormone-binding globulin with a C-terminal FLAG tag (natural protein)”, in data set [3], the stoichiometry N came to 2.

B1: recombinant full-length human sex hormone-binding globulin with a C-terminal FLAG tag (natural protein, UniProt P04278-1 30-402, looked up)
chain: LRPVLPTQSAHDPPAVHLSNGPGQEPIAVMTFDLTKITKTSSSFEVRTWDPEGVIFYGDTNPKDDWFMLGLRDGRPEIQLHNHWAQLTVGAGPRLDDGRWHQVEVKMEGDSVLLEVDGEEVLRLRQVSGPLTSKRHPIMRIALGGLLFPASNLRLPLVPALDGCLRRDSWLDKQAEISASAPTSLRSCDVESNPGIFLPPGTQAEFNLRDIPQPHAEPWAFSLDLGLKQAAGSGHLLALGTPENPSWLSLHLQDQKVVLSSGSGPGLDLPLVLGLPLQLKLSMSRVVLSQGSKMKALALPPLGLAPLLNLWAKPQGRLFLGALPGEDSSTSFCLNGLWAQGQRLDVDQALNRSHEIWTHSCPQSPGNGTDASH
modifications: glycosylated (insect cell glycans); disulfide Cys164-Cys188 verified by MALDI-ToF MS
notes: precursor of 402 residues expressed with its native signal peptide (29 residues, [residues removed]), which is cleaved on secretion; a second N-terminus one residue shorter (RPVLPTQ...) was also seen by MS. numbers count on: the mature protein; cDNA amplified from human liver total RNA; also called human SHBG; hSHBG; not shown: FLAG, C-terminal, kept
For the molecule B1, in data set [4], the “stoichiometry N” value was found to be 2.

B2: native human serum SHBG (natural protein, UniProt P04278-1 30-402, looked up)
chain: LRPVLPTQSAHDPPAVHLSNGPGQEPIAVMTFDLTKITKTSSSFEVRTWDPEGVIFYGDTNPKDDWFMLGLRDGRPEIQLHNHWAQLTVGAGPRLDDGRWHQVEVKMEGDSVLLEVDGEEVLRLRQVSGPLTSKRHPIMRIALGGLLFPASNLRLPLVPALDGCLRRDSWLDKQAEISASAPTSLRSCDVESNPGIFLPPGTQAEFNLRDIPQPHAEPWAFSLDLGLKQAAGSGHLLALGTPENPSWLSLHLQDQKVVLSSGSGPGLDLPLVLGLPLQLKLSMSRVVLSQGSKMKALALPPLGLAPLLNLWAKPQGRLFLGALPGEDSSTSFCLNGLWAQGQRLDVDQALNRSHEIWTHSCPQSPGNGTDASH
notes: also called native serum SHBG; SHBG present in human serum
Turning to B2, the “stoichiometry N” value in data set [5] is 2.
